Source: PubChem BioAssay AID1419 (Emory University Molecular Libraries Screening Center, 2008)
Calls of active or inactive are those of the source. How the calls were made is not given here.

Assay: blockers of an Epstein-Barr virus protein-peptide interaction – biochemical, fluorescence polarization, dose response (AID 1419)
Conditions: cell-free protein-peptide binding, 2 h; for fold change: measured here: P channel fold over control, at 54 µM

SMILES | IC50 | fold change
CCCN1CC=C2C(C#N)=C(N)C(C#N)(C#N)C(c3cccc(OC)c3OC)C2C1 (stereo unspecified) | 1.28 µM | 7.4
Cc1cc(/C=C2\C(=O)NC(=O)N(c3cccc(Br)c3)C2=O)c(C)n1C | 7.34 µM | 9.43
Cc1ccc(CSc2nnc3c(n2)OC2(Nc4ccccc4-3)C(=O)Nc3ccc(F)cc32)cc1 (stereo unspecified) | 6.29 µM | 16.9
CC(C)CSC1=NSC2=NC(=O)/C(=C\c3coc4ccccc4c3=O)C(=N)N12 | > 54 µM (inactive) | 33
CCN1CCN(CC(=O)N2N=C(c3cccs3)CC2c2ccc(OC)c(OC)c2)C(=O)C1=O (stereo unspecified) | > 54 µM (inactive) | 1.25
CCOc1ccc(-c2csc(NC(=O)CSC3=NC(=O)CN3C(C)=O)n2)c2ccccc12 | > 54 µM (inactive) | 0.947
Cc1cccc(C)c1NC(=O)COC(=O)c1c2c(nc3ccccc13)/C(=C\c1ccc3c(c1)OCO3)CCC2 | > 54 µM (inactive) | 1.32
COc1ccc(C(=O)c2sc3nc(C)cc(-c4cccs4)c3c2N)cc1 | 10.9 µM | 10.2
Clc1ccc(C2=CC(c3ccco3)n3ncnc3N2)cc1 (stereo unspecified) | 3.9 µM | 3.17
CCCC(=O)NC(Oc1ccc(C(C)=O)cc1)C(Cl)(Cl)Cl (stereo unspecified) | > 54 µM (inactive) | 0.993
Cc1nnc(NC(=O)CSc2cn(CCNC(=O)c3ccccc3)c3ccccc23)s1 | > 54 µM (inactive) | 1.05
CCCCn1c(=O)[nH]c2nc3cc(NC(C)=O)ccc3nc2c1=O | 3.91 µM | 3.87
CCOCCCNc1nc2c(C)cccn2c(=O)c1/C=C1\SC(=S)N(C(C)CC)C1=O (stereo unspecified) | 13.2 µM | 6.84
CN(C)c1ncnc2c1NC1=C(S2)C(=NCCCC(=O)O)CC(C)(C)C1 | 5.71 µM | 3.35
Cc1cccc(N2C(=O)NC(=O)/C(=C/c3cc4c(cc3[N+](=O)[O-])OCO4)C2=O)c1 | 2.62 µM | 3.71
CCOc1cc(Br)c(Br)c(C=Nc2ccc(NC(C)=O)cc2)c1O | 1.93 µM | 8.05
O=C(OCCN1C(=O)c2cccc3c(N4CCOCC4)ccc(c23)C1=O)c1cc(Cl)cc(Cl)c1 | 1.42 µM | 49.6
C=CCn1c(CSc2nc3ccccc3s2)nnc1SCC(=O)NCc1ccco1 | > 54 µM (inactive) | 0.923
Oc1c(Cl)cc(Cl)c(Cl)c1Cc1c(O)c(Cl)cc(Cl)c1Cl | 5.97 µM | 0.987
Cc1c(C(=O)NCCSCc2c(F)cccc2Cl)cnn1-c1ccc(Cl)cc1 | > 54 µM (inactive) | 1.06
COc1ccc(C2CC(c3ccccc3)n3nc(NC(=O)c4cccs4)nc3N2)cc1 (stereo unspecified) | > 54 µM (inactive) | 0.943
O=C(Cn1c2ccccc2c(=O)c2ccccc21)N/N=C/c1ccc(N2CCCC2)c([N+](=O)[O-])c1 | > 54 µM (inactive) | 0.76
CN(C(=O)COC(=O)c1cc(-c2ccco2)nc2ccccc12)C1CCS(=O)(=O)C1 (stereo unspecified) | 2.91 µM | 0.9
NS(=O)(=O)c1ccc(NC(=O)c2ccc(-c3ccccc3)cc2)cc1 | 25.1 µM | 1.08
CC(=O)[C@@H]1[C@@H]2C(=O)N(C3CCCCC3)C(=O)[C@@H]2C2c3ccccc3C=CN21 (stereo partly specified) | 51.9 µM (inactive) | 2
O=C1NC(=O)[C@@H]2C3c4ccccc4C=CN3[C@H](C(=O)c3cccs3)[C@H]12 (stereo partly specified) | 4.84 µM | 3.36

SMILES | IC50 | fold change
O=C(c1nc2n(n1)C(c1ccc(Cl)cc1)C=C(c1ccccc1)N2)N1CCOCC1 (stereo unspecified) | 2.27 µM | 5.19
CCc1cccc2cc3c(N)c(C(=O)Nc4ccc(S(=O)(=O)N5CCCC5)cc4)sc3nc12 | 1.63 µM | 8.07
CCCNC(=O)Cn1c(=O)/c(=C\c2ccc(-c3cccc([N+](=O)[O-])c3)o2)s/c1=C\C(=O)C(C)(C)C | 1.02 µM | 8.62
N#CC(c1nc2ccccc2nc1N1CCCC1)S(=O)(=O)c1ccccc1 (stereo unspecified) | > 54 µM (inactive) | 1.79
CC(=O)Oc1ccc2c(c1)Oc1cc(OC(C)=O)ccc1C21OC(=O)c2ccccc21 | < 0.42 µM | 23.1
CCOc1ccc(NC(=O)c2cc3c(C)nc4ccccc4c3o2)cc1 | > 54 µM (inactive) | 0.947
CN1CCC2(CC1)C1CN(C)CC=C1C(C#N)=C(N)C2(C#N)C#N (stereo unspecified) | 2.49 µM | 7.69
CC(C)OC(=O)c1c2c(n3ccccc13)C(=O)c1ccccc1C2=O | 3.85 µM | 2.93
COc1ccc(S(=O)(=O)c2c(N)n(Cc3ccco3)c3nc4ccccc4nc23)cc1 | 9.62 µM | 1.74
CSC1=NSC2=NC(=O)/C(=C/c3coc4ccccc4c3=O)C(=N)N12 | 1.78 µM | 106
Cc1ccc(NC2=Nc3ccccc3N3C2=Nc2c(c(C)nn2-c2ccccc2)C3c2ccc(O)c(O)c2)cc1 (stereo unspecified) | 3.36 µM | 2.84
Brc1ccc(C2=CC(c3ccco3)n3ncnc3N2)cc1 (stereo unspecified) | 1.09 µM | 6.05
CCC(=O)Nc1nc2n(n1)C(c1ccc(OC)cc1)C=C(c1ccccc1)N2 (stereo unspecified) | 5.14 µM | 2.8
O=C(COC(=O)c1cccnc1)NC1CCCc2ccccc21 (stereo unspecified) | > 54 µM (inactive) | 1.84
COc1ccc(N=C2NC(=O)S/C2=C\c2ccc(N(C)C)cc2)cc1 | 4.75 µM | 3.03
COc1ccc(OC)c(C2C3CN(C(C)C)CC=C3C(C#N)=C(N)C2(C#N)C#N)c1 (stereo unspecified) | 5.91 µM | 3.96
Cn1c(O)c(C=Nc2ccc(N3CCOCC3)cc2)c(=O)n(C)c1=S | 18.9 µM | 6.36
O=C(Nc1cccc(S(=O)(=O)NC2=NCCC2)c1)c1cc(-c2ccco2)nc2ccccc12 | 2.74 µM | 1.11
CC1CCCCC1NC(=O)CN1C(=O)c2cccc(N)c2C1=O (stereo unspecified) | 2.35 µM | 2.47
COc1ccc(N2C(=O)[C@@H]3[C@H](C2=O)[C@H]2c4ccccc4C=CN2[C@@H]3C(C)=O)cc1 | 7.62 µM | 5.55
COC(=O)c1ccc2c(=O)sc(N3CCC(C(N)=O)CC3)nc2c1 | 4 µM | 2.35
Cc1ccc(C2C(C(=O)c3cccs3)=C(O)C(=O)N2c2nnc(C)s2)cc1 (stereo unspecified) | 0.9 µM | 3.94
CCc1cc[n+](-c2nc3ccccc3nc2[N-]S(=O)(=O)c2ccc(Br)s2)cc1 | 3.71 µM | 3.49
CSc1nc(N(CCO)CCO)c2sc3nc(-c4ccco4)c4c(c3c2n1)CCC4 | > 54 µM (inactive) | 1.07
CC(C)(C)N1CC(c2nc3ccccc3n2CCOc2ccccc2)CC1=O (stereo unspecified) | 15.4 µM | 1.08
COc1cc(N2CCCC2)c(OC)cc1/C=C(/C#N)c1ccc(F)cc1 | 9.59 µM | 10.8

SMILES | IC50 | fold change
CC(=O)N/N=C/c1cc(C(C)C)cc(/C=N/NC(C)=O)c1O | 2.84 µM | 4.18
CCOC(=O)c1sc2nc3c(SCCC(=O)O)cc(C(=O)c4cc(OC)ccc4O)cn3c(=O)c2c1C | > 54 µM (inactive) | 1.04
COc1ccc(OC)c(/C=c2\sc3nc(-c4cccs4)nn3c2=O)c1 | 6.04 µM | 5.71
COc1ccc(/C=C2\SC(=O)N(CC(=O)NNC(=O)c3ccccc3O)C2=O)cc1 | > 54 µM (inactive) | 1.01
CCN(CC)c1ccc(N=Cc2c(O)n(-c3ccc(OC)cc3)c(=O)[nH]c2=O)cc1 | 6.01 µM | 17.1
O=c1cc(C(F)(F)F)c2cc3c4c(c2o1)CCCN4CCC3 | < 0.42 µM | 57.5
N=C1CCC(=N)c2c1c(O)c1ccccc1c2O | < 0.42 µM | 41.5
c1ccc(-c2[nH]c(-c3ccccc3)[n+](CC3CO3)c2-c2ccccc2)cc1 (stereo unspecified) | > 54 µM (inactive) | 0.99
O=c1oc2ccccc2nc1/C=C(\O)c1ccc(Br)cc1 | > 54 µM (inactive) | 6.17
CCn1c(CSc2n[nH]c(N)n2)nc2cc(C(=O)O)ccc21 | 4.18 µM | 5.1
Cc1nnc(N2C(=O)C(O)=C(C(=O)c3ccco3)C2c2ccc(F)cc2)s1 (stereo unspecified) | 10.4 µM | 2.42
CN(C)CCCN1C(=O)c2cccc3c([N+](=O)[O-])ccc(c23)C1=O | 18 µM | 2.14
O=S(=O)(Nc1nc2ccccc2nc1N1CCN(c2ccccn2)CC1)c1ccc(Cl)cc1 | > 54 µM (inactive) | 2.14
COc1ccc(NS(=O)(=O)c2ccc(Cl)s2)cn1 | 4.58 µM | 3.24
COc1ccc(N=Cc2c(O)n(Cc3ccccc3)c(=S)[nH]c2=O)c(OC)c1 | > 54 µM (inactive) | 3.88
O=c1[nH]c2cc3c(cc2cc1CN(Cc1nnnn1CC1CCCO1)C1CCCCC1)OCO3 (stereo unspecified) | 51.6 µM (inactive) | 1.73
CC1=CC(=C(C#N)c2nc3ccccc3s2)C=C(C)N1c1ccc(F)cc1 | 7.09 µM | 38.9
CCOC(=O)C1=NNC(C(=O)c2ccc(Cl)cc2)C1c1ccc(OC)cc1 (stereo unspecified) | > 54 µM (inactive) | 0.933
C=CCN1CC(c2nc3ccccc3n2CCOc2ccccc2)CC1=O (stereo unspecified) | 34.2 µM (inactive) | 1.08
O=C(CSc1nc(-c2ccc(F)cc2)nc2c1Cc1ccccc1O2)Nc1ccc(C(=O)O)cc1 | 2.9 µM | 1.11
COC(=O)CCCCC1SCC(NC(=O)c2ccccc2)C1Cl (stereo unspecified) | 10.8 µM | 2.16
COc1ccccc1N1C(=O)C2C(C(=O)c3ccccc3)=NN(c3ccccc3)C2C1=O (stereo unspecified) | 8.66 µM | 8.64
COc1ccc(/C=C2\CCCc3c2nc2ccccc2c3C(=O)O)cc1OC | < 0.42 µM | 20.3
Nc1cc2c3c(cccc3c1)C(=O)N(CCN1CCCC1)C2=O | 4.78 µM | 3.92
Cc1ccc(-n2cccc2/C=C2\C(=N)N3N=C(c4ccco4)SC3=NC2=O)cc1 | > 54 µM (inactive) | 1.17
CCOC(=O)c1c(C)[nH]c(C)c1C(=O)CSc1nc2ccccc2n1CC | > 54 µM (inactive) | 1.24
